From patent US12391687B2, “Five-and-six-membered heterocyclic compound and use thereof as protein receptor kinase inhibitor” (SHANGHAI ENNOVABIO PHARMACEUTICALS CO., LTD., priority 2018, dated 2025)

Assays:
Type in all cases: biochemical
Recombinant human TRKA = Recombinant human TRKA (Homo sapiens (Human), UniProt P04629); assay: In vitro activity test on TRKA kinase (HTRF kinEASE TK); details: 14.68 μM ATP, 40 min, room temperature
Description: (§1) Recombinant human TRKA, TRKB, TRKC proteins were purchased from Carna Biosciences. HTRF kinEASE TK kit was purchased from Cisbio Bioassays. Synergy Neo 2 of Biotek was used to read the plate.
(§2) The tested compounds were subjected to 3-fold serial dilution to reach a final concentration of 1 μM to 0.05 nM (10 concentrations), duplicates for each concentration; and the DMSO concentration in the detection reaction was 1%.
0.2 ng/μL TRKA protein kinase, 1 μM TK Substrate-biotin polypeptide substrate, 14.68 μM ATP, 1×enzymatic buffer, 5 mM MgCl2, and 1 mM DTT. The assay plate was White Proxiplate384-Plus plate (PerkinElmer), and the reaction was incubated at room temperature for 40 min, and the assay volume was 10 μL.
(§3) 10 μL of detection reagent (containing 0.125 μM SA-XL665 and 5 μL 1×TK-Antibody) was added to the plate and incubated overnight at room temperature. Synergy Neo 2 was used to read the plate.
(§4) The 665/620 Ratio was converted according to the following formula into inhibition rate (%)=(1−Ratiotest/Ratiomax)×100%. Ratiomax was the value of positive controls without tested compound, and Ratiotest was the value of each concentration of different compounds. IC50 (nM) data was obtained by 4 parameter curve fitting (see Table 1).

Recombinant human TRKB = Recombinant human TRKB (Homo sapiens (Human), UniProt Q16620); assay: In vitro activity test on TRKB kinase (HTRF kinEASE TK); details: 4.77 μM ATP, 50 min, room temperature
Chain of Recombinant human TRKB (Q16620 32-822): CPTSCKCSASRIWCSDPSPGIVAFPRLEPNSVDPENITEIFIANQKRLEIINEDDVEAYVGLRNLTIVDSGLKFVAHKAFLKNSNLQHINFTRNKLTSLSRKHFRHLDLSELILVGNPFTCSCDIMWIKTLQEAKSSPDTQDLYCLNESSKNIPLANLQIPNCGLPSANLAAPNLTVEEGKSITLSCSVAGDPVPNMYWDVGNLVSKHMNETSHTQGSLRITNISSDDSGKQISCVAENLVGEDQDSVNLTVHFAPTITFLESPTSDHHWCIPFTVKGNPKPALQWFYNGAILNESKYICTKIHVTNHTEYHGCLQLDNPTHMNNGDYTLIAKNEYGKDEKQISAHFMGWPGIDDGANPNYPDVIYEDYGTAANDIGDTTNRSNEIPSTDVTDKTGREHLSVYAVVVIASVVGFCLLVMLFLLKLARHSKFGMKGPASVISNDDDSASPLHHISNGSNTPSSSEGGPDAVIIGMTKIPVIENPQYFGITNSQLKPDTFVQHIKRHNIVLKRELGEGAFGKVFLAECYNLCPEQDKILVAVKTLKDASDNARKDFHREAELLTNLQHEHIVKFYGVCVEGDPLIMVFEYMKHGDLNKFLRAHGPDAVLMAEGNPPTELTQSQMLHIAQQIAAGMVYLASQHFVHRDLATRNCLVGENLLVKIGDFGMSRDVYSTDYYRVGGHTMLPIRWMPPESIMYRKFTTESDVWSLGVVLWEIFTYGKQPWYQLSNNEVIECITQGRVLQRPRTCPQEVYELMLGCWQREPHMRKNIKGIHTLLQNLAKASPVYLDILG
Description: as §1, §2
(§5) 0.037 ng/μL TRKB protein kinase, 1 μM TK Substrate-biotin polypeptide substrate, 4.77 μM ATP, 1× enzymatic buffer, 5 mM MgCl2, 1 mM MnCl2 and 1 mM DTT. The assay plate was White Proxiplate 384-Plus plate (PerkinElmer), the reaction was incubated at room temperature for 50 min, and the assay volume was 10 μL.
as §3, §4

Recombinant human TRKC = Recombinant human TRKC (Homo sapiens (Human), UniProt Q16288); assay: In vitro activity test on TRKC kinase (HTRF kinEASE TK); details: 25.64 μM ATP, 40 min, room temperature
Chain of Recombinant human TRKC (Q16288 32-839): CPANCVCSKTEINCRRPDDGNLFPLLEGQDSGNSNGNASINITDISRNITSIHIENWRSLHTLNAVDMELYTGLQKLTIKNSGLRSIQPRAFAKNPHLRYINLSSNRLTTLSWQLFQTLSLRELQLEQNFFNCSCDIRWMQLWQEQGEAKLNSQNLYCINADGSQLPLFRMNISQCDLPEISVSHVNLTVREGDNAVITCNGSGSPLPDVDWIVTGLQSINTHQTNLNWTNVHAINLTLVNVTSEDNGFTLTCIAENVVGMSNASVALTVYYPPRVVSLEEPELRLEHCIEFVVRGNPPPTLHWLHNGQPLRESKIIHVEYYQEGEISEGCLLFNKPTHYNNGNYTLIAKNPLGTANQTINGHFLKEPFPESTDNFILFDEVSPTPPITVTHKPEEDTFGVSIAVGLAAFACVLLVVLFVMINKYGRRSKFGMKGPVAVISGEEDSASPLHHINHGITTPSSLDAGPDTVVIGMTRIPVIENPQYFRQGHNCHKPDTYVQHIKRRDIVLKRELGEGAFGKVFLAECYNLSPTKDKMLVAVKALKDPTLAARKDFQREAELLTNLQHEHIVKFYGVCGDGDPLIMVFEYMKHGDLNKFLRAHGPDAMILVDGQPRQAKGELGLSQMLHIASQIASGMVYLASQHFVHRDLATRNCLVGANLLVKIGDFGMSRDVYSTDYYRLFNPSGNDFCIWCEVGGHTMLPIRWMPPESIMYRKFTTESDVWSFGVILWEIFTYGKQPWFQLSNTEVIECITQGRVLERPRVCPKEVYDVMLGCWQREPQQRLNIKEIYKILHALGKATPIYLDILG
Description: as §1, §2
as §5, with “ng/μL TRKC” for “ng/μL TRKB”, “substrate, 25.64” for “substrate, 4.77”, “MgCl2,” for “MgCl2, 1 mM MnCl2”, “The detection” for “The assay”, “for 40” for “for 50”
as §3, §4

[1] = target: recombinant human TRKA (G595R) (Homo sapiens (Human), UniProt P04629, G595R); assay: In vitro activity test on mutant TRKA (G595R) (HTRF kinEASE TK); details: 4.5 μM ATP, 30 min, room temperature; read-out: TRKA (G595R) IC 50
Chain of recombinant human TRKA (G595R) (P04629 33-796 G595R): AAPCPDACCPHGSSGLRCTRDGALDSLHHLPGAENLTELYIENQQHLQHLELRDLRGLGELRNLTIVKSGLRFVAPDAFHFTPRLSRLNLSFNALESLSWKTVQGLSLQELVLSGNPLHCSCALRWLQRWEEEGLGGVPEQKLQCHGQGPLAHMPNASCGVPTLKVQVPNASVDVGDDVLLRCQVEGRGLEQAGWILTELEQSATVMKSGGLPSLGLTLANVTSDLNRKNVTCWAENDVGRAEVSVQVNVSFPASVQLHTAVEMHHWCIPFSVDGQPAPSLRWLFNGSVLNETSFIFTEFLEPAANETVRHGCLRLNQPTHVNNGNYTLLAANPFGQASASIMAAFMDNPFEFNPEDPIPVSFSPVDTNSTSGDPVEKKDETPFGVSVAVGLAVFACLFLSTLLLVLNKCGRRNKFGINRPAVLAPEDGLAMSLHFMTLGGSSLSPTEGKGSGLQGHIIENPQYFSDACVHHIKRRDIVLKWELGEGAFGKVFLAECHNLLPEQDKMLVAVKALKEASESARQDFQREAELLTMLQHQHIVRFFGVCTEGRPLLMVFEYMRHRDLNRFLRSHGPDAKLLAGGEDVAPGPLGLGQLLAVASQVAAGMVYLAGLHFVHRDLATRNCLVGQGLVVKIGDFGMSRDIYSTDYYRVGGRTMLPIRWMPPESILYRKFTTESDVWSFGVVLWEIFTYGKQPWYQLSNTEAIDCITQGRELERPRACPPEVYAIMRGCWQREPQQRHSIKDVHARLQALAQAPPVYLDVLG
Description: The recombinant human TRKA (G595R), TRKA (G667C) and TRKC (G623R) proteins were purchased from SignalChem. HTRF kinEASE TK kit was purchased from Cisbio Bioassays. Synergy Neo 2 of Biotek was used to read the plate.
The tested compounds were subjected to 4-fold serial dilution to reach a final concentration of 1 μM to 0.004 nM (10 concentrates), duplicates for each concentration; and the final concentration of DMSO in the reaction was 1%.
0.12 ng/μL TRKA (G595R) kinase, 1 μM TK Substrate-biotin polypeptide substrate, 4.5 μM ATP, 1× enzymatic buffer, 5 mM MgCl2, and 1 mM DTT. The assay plate was White Proxiplate384-Plus plate (PerkinElmer), and the reaction was incubated at room temperature for 30 min, and the assay volume was 10 μL.
10 μL of detection reagent (containing 0.125 μM SA-XL665 and 5 μL 1×TK-Antibody) was added to the plate and incubated overnight at room temperature, and Synergy Neo 2 was used to read the plate.
The value of 665/620 Ratio minus the value of negative control wells without enzyme, then the obtained value was converted according to the following formula into inhibition rate (%)=(1−Ratiotest/Ratiomax)×100%. Ratiomax was the value of positive controls without tested compound, and Ratiotest was the value of each concentration of different compounds. IC50 (nM) data was obtained by 4 parameter curve fitting (see Table 3).

Chain of Recombinant human TRKA (P04629 33-796): as the sequence (P04629 33-796 G595R) above, with R563G counted along it

IC50 (Recombinant human TRKA) | IC50 (Recombinant human TRKB) | IC50 (Recombinant human TRKC) | IC50 [1] | Structure (SMILES)
< 50 nM | < 10 nM | < 10 nM |  | CC(C)(O)CNC(=O)c1cnc2[nH]nc(N3CCC[C@@H]3c3cc(F)ccc3F)c2c1 [Example 10, (R)-3-(2-(2,5-difluorophenyl)pyrrolidin-1-yl)-N-(2-hydroxy-2-methylpropyl)-1H-pyrazolo[3,4-b]pyridine-5-carboxamide]
< 10 nM | < 10 nM | < 10 nM |  | O=C(N[C@H]1CC[C@@H](O)CC1)c1cnc2[nH]nc(N3CCC[C@@H]3c3cc(F)ccc3F)c2c1 [Example 14, 3-((R)-2-(2,5-difluorophenyl)pyrrolidin-1-yl)-N-((1s,4S)-4-hydroxycyclohexyl)-1H-pyrazolo[3,4-b]pyridine-5-carboxamide]
< 10 nM | < 50 nM | < 10 nM |  | O=C(NCCCCO)c1cnc2[nH]nc(N3CCC[C@@H]3c3cc(F)ccc3F)c2c1 [Example 12, (R)-3-(2-(2,5-difluorophenyl)pyrrolidin-1-yl)-N-(4-hydroxybutyl)-1H-pyrazolo[3,4-b]pyridine-5-carboxamide]
< 50 nM | < 100 nM | < 50 nM |  | O=C(Nc1cnc2[nH]nc(N3CCC[C@@H]3c3cc(F)ccc3F)c2c1)c1ccc(N2CC[C@H](O)C2)nc1 [Example 3, N-(3-((R)-2-(2,5-difluorophenyl)pyrrolidin-1-yl)-1H-pyrazolo[3,4-b]pyridin-5-yl)-6-((S)-3-hydroxypyrrolidin-1-yl)nicotinamide]
< 500 nM | < 500 nM | < 500 nM |  | CN(C)C(=O)c1cnc2[nH]nc(N3C[C@@H](F)C[C@@H]3c3cc(F)ccc3F)c2c1 [Example 18, 3-((2R,4S)-2-(2,5-difluorophenyl)-4-fluoropyrrolidin-1-yl)-N,N-dimethyl-1H-pyrazolo[3,4-b]pyridine-5-carboxamide]
< 50 nM | < 50 nM | < 50 nM |  | O=C(NCCO)c1cnc2[nH]nc(N3CCC[C@@H]3c3cc(F)ccc3F)c2c1 [Example 6, (R)-3-(2-(2,5-difluorophenyl)pyrrolidin-1-yl)-N-(2-hydroxyethyl)-1H-pyrazolo[3,4-b]pyridine-5-carboxamide]
< 1 nM | < 1 nM | < 1 nM | < 1 nM | Fc1ccc(F)c([C@H]2C[C@H](F)CN2c2n[nH]c3ncc(-c4nnc(COC(F)(F)F)o4)cc23)c1 [Example 41, 2-(3-((2R,4S)-2-(2,5-difluorophenyl)-4-fluoropyrrolidin-1-yl)-1H-pyrazolo[3,4-b]pyridin-5-yl)-5-((trifluoromethoxy)methyl)-1,3,4-oxadiazole]
< 1 nM | < 1 nM | < 1 nM | < 10 nM | Fc1ccc(F)c([C@H]2C[C@H](F)CN2c2n[nH]c3ncc(-c4cnn(CC5CNC5)c4)cc23)c1 [Example 34, 5-(1-(azetidin-3-ylmethyl)-1H-pyrazol-4-yl)-3-((2R,4S)-2-(2,5-difluorophenyl)-4-fluoropyrrolidin-1-yl)-1H-pyrazolo[3,4-b]pyridine]
< 50 nM | < 10 nM | < 50 nM |  | O=C(NCCCO)c1cnc2[nH]nc(N3CCC[C@@H]3c3cc(F)ccc3F)c2c1 [Example 9, (R)-3-(2-(2,5-difluorophenyl)pyrrolidin-1-yl)-N-(3-hydroxypropyl)-1H-pyrazolo[3,4-b]pyridine-5-carboxamide]
< 50 nM | < 10 nM | < 10 nM |  | COCCNC(=O)c1cnc2[nH]nc(N3CCC[C@@H]3c3cc(F)ccc3F)c2c1 [Example 8, (R)-3-(2-(2,5-difluorophenyl)pyrrolidin-1-yl)-N-(2-methoxyethyl)-1H-pyrazolo[3,4-b]pyridine-5-carboxamide]
< 1 nM | < 1 nM | < 1 nM | < 10 nM | O=C(O)c1cnc2[nH]nc(N3C[C@@H](F)C[C@@H]3c3cc(F)ccc3F)c2c1 [Example 17, 3-((2R,4S)-2-(2,5-difluorophenyl)-4-fluoropyrrolidin-1-yl)-1H-pyrazolo[3,4-b]pyridine-5-carboxylic acid]
< 1 nM | < 1 nM | < 1 nM | < 1 nM | O=C(c1n[nH]c2nccc(N[C@@H]3CCC[C@H]3O)c12)N1C[C@@H](F)C[C@@H]1c1cc(F)ccc1F [Example 43, ((2R,4S)-2-(2,5-difluorophenyl)-4-fluoropyrrolidin-1-yl)(4-(((1R,2R)-2-hydroxycyclopentyl)amino)-1H-pyrazolo[3,4-b]pyridin-3-yl)methanone]
< 1 nM | < 1 nM | < 1 nM |  | NNC(=O)c1cnc2[nH]nc(N3C[C@@H](F)C[C@@H]3c3cc(F)ccc3F)c2c1 [Example 39, 3-((2R,4S)-2-(2,5-difluorophenyl)-4-fluoropyrrolidin-1-yl)-1H-pyrazolo[3,4-b]pyridine-5-carbohydrazide]
< 1 nM | < 1 nM | < 1 nM | < 1 nM | Fc1ccc(F)c([C@H]2C[C@H](F)CN2c2n[nH]c3ncc(-c4nn[nH]n4)cc23)c1 [Example 21, 3-((2R,4S)-2-(2,5-difluorophenyl)-4-fluoropyrrolidin-1-yl)-5-(2H-tetrazol-5-yl)-1H-pyrazolo[3,4-b]pyridine]
< 10 nM | < 10 nM | < 10 nM |  | NC(=O)c1cnc2[nH]nc(N3CCC[C@@H]3c3cc(F)ccc3F)c2c1 [Example 4, (R)-3-(2-(2,5-difluorophenyl)pyrrolidin-1-yl)-1H-pyrazolo[3,4-b]pyridine-5-carboxamide]
< 1 nM | < 10 nM | < 10 nM |  | CC1(O)CCN(c2cnc(C(=O)Nc3cnc4[nH]nc(N5C[C@@H](F)C[C@@H]5c5cc(F)ccc5F)c4c3)cn2)C1 (stereo partly drawn) [Example 16, N-(3-((2R,4S)-2-(2,5-difluorophenyl)-4-fluoropyrrolidin-1-yl)-1H-pyrazolo[3,4-b]pyridin-5-yl)-5-(3-hydroxy-3-methylpyrrolidin-1-yl)pyrazine-2-carboxamide]
< 10 nM | < 10 nM | < 10 nM |  | O=C1CC(n2cc(-c3cnc4[nH]nc(N5C[C@@H](F)C[C@@H]5c5cc(F)ccc5F)c4c3)cn2)CCN1 (stereo partly drawn) [Example 23, 4-(4-(3-((2R,4S)-2-(2,5-difluorophenyl)-4-fluoropyrrolidin-1-yl)-1H-pyrazolo[3,4-b]pyridin-5-yl)-1H-pyrazol-1-yl)piperidin-2-one]
< 500 nM | < 500 nM | < 500 nM |  | O=C(Nc1cnc2[nH]nc(N3CCC[C@@H]3c3cc(F)ccc3F)c2c1)N1CC[C@H](O)C1 [Example 2, (S)—N-(3-((R)-2-(2,5-difluorophenyl)pyrrolidin-1-yl)-1H-pyrazolo[3,4-b]pyridin-5-yl)-3-hydroxypyrrolidine-1-carboxamide]
< 100 nM | < 10 nM | < 100 nM |  | COCc1nnc(-c2cnc3c(c2)c(N2C[C@@H](F)C[C@@H]2c2cc(F)ccc2F)nn3COC)o1 [Example 38, 2-(3-((2R,4S)-2-(2,5-difluorophenyl)-4-fluoropyrrolidin-1-yl)-1-(methoxymethyl)-1H-pyrazolo[3,4-b]pyridin-5-yl)-5-(methoxymethyl)-1,3,4-oxadiazole]
< 500 nM | < 500 nM | < 500 nM |  | CNC(=O)CC1(O)CCN(C(=O)Nc2cnc3[nH]nc(N4CCC[C@@H]4c4cc(F)ccc4F)c3c2)C1 (stereo partly drawn) [Example 1, N-(3-((R)-2-(2,5-difluorophenyl)pyrrolidin-1-yl)-1H-pyrazolo[3,4-b]pyridin-5-yl)-3-hydroxy-3-(2-(methylamino)-2-oxoethyl)pyrrolidine-1-carboxamide]
